Experimental data taken from ChEMBL document CHEMBL3862012, “Methylene versus carbonyl bridge in the structure of new tubulin polymerization inhibitors with tricyclic A-rings” (Bioorg Med Chem, 2016).

Legend:
Assay type in all cases: functional
[1] = Cytotoxicity against human CCRF-CEM cells assessed as growth inhibition at 10 uM after 48 hrs by SRB assay relative to control; details: read-out: GI
[2] = Cytotoxicity against human NCI-H23 cells assessed as growth inhibition at 10 uM after 48 hrs by SRB assay relative to control; details: NCI-H23, 48 h, read-out: GI
[3] = Cytotoxicity against human HCT116 cells assessed as growth inhibition at 10 uM after 48 hrs by SRB assay relative to control; details: HCT-116, 48 h, read-out: GI
[4] = Cytotoxicity against human KM12 cells assessed as growth inhibition at 10 uM after 48 hrs by SRB assay relative to control; details: KM12, 48 h, read-out: GI
[5] = Cytotoxicity against human SF268 cells assessed as growth inhibition at 10 uM after 48 hrs by SRB assay relative to control; details: SF-268, 48 h, read-out: GI
[6] = Cytotoxicity against human SF539 cells assessed as growth inhibition at 10 uM after 48 hrs by SRB assay relative to control; details: SF-539, 48 h, read-out: GI
[7] = Cytotoxicity against human SNB75 cells assessed as growth inhibition at 10 uM after 48 hrs by SRB assay relative to control; details: SNB-75, 48 h, read-out: GI
[8] = Cytotoxicity against human U251 cells assessed as growth inhibition at 10 uM after 48 hrs by SRB assay relative to control; details: U-251, 48 h, read-out: GI
[9] = Cytotoxicity against human M14 cells assessed as growth inhibition at 10 uM after 48 hrs by SRB assay relative to control; details: M14, 48 h, read-out: GI
[10] = Cytotoxicity against human MDA-MB-435 cells assessed as growth inhibition at 10 uM after 48 hrs by SRB assay relative to control; details: MDA-MB-435, 48 h, read-out: GI
[11] = Cytotoxicity against human OVCAR5 cells assessed as growth inhibition at 10 uM after 48 hrs by SRB assay relative to control; details: OVCAR-5, 48 h, read-out: GI
[12] = Cytotoxicity against human SKOV3 cells assessed as growth inhibition at 10 uM after 48 hrs by SRB assay relative to control; details: SK-OV-3, 48 h, read-out: GI
[13] = Cytotoxicity against human 786-0 cells assessed as growth inhibition at 10 uM after 48 hrs by SRB assay relative to control; details: 786-0, 48 h, read-out: GI
[14] = Cytotoxicity against human Caki1 cells assessed as growth inhibition at 10 uM after 48 hrs by SRB assay relative to control; details: CAKI-1, 48 h, read-out: GI
[15] = Cytotoxicity against human MCF7 cells assessed as growth inhibition at 10 uM after 48 hrs by SRB assay relative to control; details: MCF7, 48 h, read-out: GI
[16] = Cytotoxicity against human BT549 cells assessed as growth inhibition at 10 uM after 48 hrs by SRB assay relative to control; details: BT-549, 48 h, read-out: GI
[17] = Cytotoxicity against human T47D cells assessed as growth inhibition at 10 uM after 48 hrs by SRB assay relative to control; details: read-out: GI
[18] = Cytotoxicity against human HL-60(TB) cells assessed as growth inhibition after 48 hrs by SRB assay; details: HL-60, 48 h
[19] = Cytotoxicity against human K562 cells assessed as growth inhibition after 48 hrs by SRB assay; details: K562, 48 h
[20] = Cytotoxicity against human RPMI8226 cells assessed as growth inhibition after 48 hrs by SRB assay; details: RPMI-8226, 48 h
[21] = Cytotoxicity against human HOP62 cells assessed as growth inhibition after 48 hrs by SRB assay; details: HOP-62, 48 h
[22] = Cytotoxicity against human NCI-H460 cells assessed as growth inhibition after 48 hrs by SRB assay; details: NCI-H460, 48 h
[23] = Cytotoxicity against human HT-29 cells assessed as growth inhibition after 48 hrs by SRB assay; details: HT-29, 48 h
[24] = Cytotoxicity against human SF268 cells assessed as growth inhibition after 48 hrs by SRB assay; details: SF-268, 48 h
[25] = Cytotoxicity against human SF295 cells assessed as growth inhibition after 48 hrs by SRB assay; details: SF-295, 48 h
[26] = Cytotoxicity against human SNB75 cells assessed as growth inhibition after 48 hrs by SRB assay; details: SNB-75, 48 h
[27] = Cytotoxicity against human U251 cells assessed as growth inhibition after 48 hrs by SRB assay; details: U-251, 48 h
[28] = Cytotoxicity against human M14 cells assessed as growth inhibition after 48 hrs by SRB assay; details: M14, 48 h
[29] = Cytotoxicity against human MDA-MB-435 cells assessed as growth inhibition after 48 hrs by SRB assay; details: MDA-MB-435, 48 h
[30] = Cytotoxicity against human SK-MEL-28 cells assessed as growth inhibition after 48 hrs by SRB assay; details: SK-MEL-28, 48 h
[31] = Cytotoxicity against human UACC62 cells assessed as growth inhibition after 48 hrs by SRB assay; details: UACC-62, 48 h
[32] = Cytotoxicity against human NCI-ADR-RES cells assessed as growth inhibition after 48 hrs by SRB assay
[33] = Cytotoxicity against human SKOV3 cells assessed as growth inhibition after 48 hrs by SRB assay; details: SK-OV-3, 48 h
[34] = Cytotoxicity against human A498 cells assessed as growth inhibition after 48 hrs by SRB assay; details: A498, 48 h
[35] = Cytotoxicity against human UO31 cells assessed as growth inhibition after 48 hrs by SRB assay; details: UO-31, 48 h
[36] = Cytotoxicity against human 786-0 cells assessed as growth inhibition after 48 hrs by SRB assay; details: 786-0, 48 h
[37] = Cytotoxicity against human ACHN cells assessed as growth inhibition after 48 hrs by SRB assay
[38] = Cytotoxicity against human DU145 cells assessed as growth inhibition after 48 hrs by SRB assay; details: DU-145, 48 h
[39] = Cytotoxicity against human MCF7 cells assessed as growth inhibition after 48 hrs by SRB assay; details: MCF7, 48 h
[40] = Cytotoxicity against human K562 cells assessed as growth inhibition at 10 uM after 48 hrs by SRB assay relative to control; details: K562, 48 h, read-out: GI
[41] = Cytotoxicity against human SK-MEL-5 cells assessed as growth inhibition at 10 uM after 48 hrs by SRB assay relative to control; details: SK-MEL-5, 48 h, read-out: GI
[42] = Cytotoxicity against human UACC62 cells assessed as growth inhibition at 10 uM after 48 hrs by SRB assay relative to control; details: UACC-62, 48 h, read-out: GI
[43] = Cytotoxicity against human SN12C cells assessed as growth inhibition at 10 uM after 48 hrs by SRB assay relative to control; details: read-out: GI

| SMILES | inhibition of growth at 10 µM [1] [%] | inhibition of growth at 10 µM [2] [%] | inhibition of growth at 10 µM [3] [%] | inhibition of growth at 10 µM [4] [%] | inhibition of growth at 10 µM [5] [%] | inhibition of growth at 10 µM [6] [%] | inhibition of growth at 10 µM [7] [%] | inhibition of growth at 10 µM [8] [%] | inhibition of growth at 10 µM [9] [%] | inhibition of growth at 10 µM [10] [%] | inhibition of growth at 10 µM [11] [%] | inhibition of growth at 10 µM [12] [%] | inhibition of growth at 10 µM [13] [%] | inhibition of growth at 10 µM [14] [%] | inhibition of growth at 10 µM [15] [%] | inhibition of growth at 10 µM [16] [%] | inhibition of growth at 10 µM [17] [%] | GI50 [19] [nM] | GI50 [23] [nM] | GI50 [28] [nM] | further results |
| --- | --- | --- | --- | --- | --- | --- | --- | --- | --- | --- | --- | --- | --- | --- | --- | --- | --- | --- | --- | --- | --- |
| COc1ccc(CN2c3ccccc3Oc3ccccc32)cc1F | 33 | 28 | 69 | 59 | 15 | 35 | 52 | 60 | 66 | 100 | 13 | 53 | 21 | 41 | 57 | 30 | 42 |  |  |  |  |
| COc1ccc(CN2c3ccccc3Sc3ccccc32)cc1O | 92 | 63 | 87 | 82 | 54 | 100 | 73 | 82 | 86 | 99 | 14 | 71 | 57 | 64 | 74 | 45 | 73 | 365 | 724 | 383 | GI50 [18]: 257 nM; GI50 [20]: 420 nM; GI50 [21]: 384 nM; GI50 [22]: 444 nM; GI50 [24]: 966 nM; GI50 [25]: 225 nM; GI50 [26]: 180 nM; GI50 [27]: 427 nM; GI50 [29]: 234 nM; GI50 [30]: 14400 nM; GI50 [31]: 682 nM; GI50 [32]: 291 nM; GI50 [33]: 521 nM; GI50 [34]: 2710 nM; GI50 [35]: 752 nM; GI50 [36]: 838 nM; GI50 [37]: 1560 nM; GI50 [38]: 374 nM; GI50 [39]: 355 nM |
| COc1ccc(CN2c3ccccc3Sc3ccccc32)c(F)c1 | 93 | 50 | 84 | 74 | 48 | 100 | 100 | 70 | 89 | 100 | 50 | 70 | 58 | 78 | 77 | 47 | 88 | 38 | 35 | 38 | inhibition of growth at 10 µM [40]: 91%; inhibition of growth at 10 µM [41]: 74%; inhibition of growth at 10 µM [42]: 67%; inhibition of growth at 10 µM [43]: 53%; GI50 [29]: 25 nM; GI50 [30]: 5050 nM; GI50 [39]: 33 nM |
